The source made the active and inactive calls. No rule for the calls is given here.
Molecular target: Alkaline phosphatase, tissue-nonspecific isozyme (Homo sapiens) (UniProt P05186)
Assay: TNAP enzyme activity modulation, counter to mouse IAP activators, SAR follow-up, selectivity assay for mouse IAP activator project, biochemical, set 2 (AID 588605)
Conditions: SAR counter-screen for mouse IAP activators

Chain of Alkaline phosphatase, tissue-nonspecific isozyme (Homo sapiens) (P05186 whole entry, looked up): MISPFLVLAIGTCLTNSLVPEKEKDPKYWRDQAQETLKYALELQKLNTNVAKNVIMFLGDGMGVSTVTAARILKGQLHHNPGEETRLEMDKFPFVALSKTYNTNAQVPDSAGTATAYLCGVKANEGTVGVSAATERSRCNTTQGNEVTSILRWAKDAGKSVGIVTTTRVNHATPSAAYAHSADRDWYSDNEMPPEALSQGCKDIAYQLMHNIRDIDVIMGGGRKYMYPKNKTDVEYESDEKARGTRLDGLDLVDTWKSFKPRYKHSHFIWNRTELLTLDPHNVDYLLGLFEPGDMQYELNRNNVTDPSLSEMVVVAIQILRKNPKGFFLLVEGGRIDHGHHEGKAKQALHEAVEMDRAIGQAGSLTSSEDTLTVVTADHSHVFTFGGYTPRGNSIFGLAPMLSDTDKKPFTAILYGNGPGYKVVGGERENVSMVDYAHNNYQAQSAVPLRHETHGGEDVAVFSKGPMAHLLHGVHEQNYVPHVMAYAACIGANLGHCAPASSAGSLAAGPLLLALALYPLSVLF

EC50	Compound
> 100 µM (inactive)	CN(CCc1ccccc1)C(=S)Nc1cccc(S(=O)(=O)N(C)C)c1
87.1 µM	Cc1ccc(S(=O)(=O)N(C)C)cc1NC(=S)NC(C)CCC(C)C (centres undefined)
65.5 µM	CN(C)S(=O)(=O)c1ccc(NC(=S)NCCc2cccc(Br)c2)cc1
> 100 µM (inactive)	CCN(CC)CCCNC(=S)Nc1cccc(S(=O)(=O)N(C)C)c1
> 100 µM (inactive)	CN(C)S(=O)(=O)c1cccc(NC(=S)NCCCn2ccnc2)c1
97.8 µM	CN(C)S(=O)(=O)c1cccc(NC(=S)NCCc2ccccc2)c1
> 100 µM (inactive)	CC(CNC(=S)Nc1cccc(S(=O)(=O)N(C)C)c1)N1CCN(c2ccccc2)CC1 (centres undefined)
> 100 µM (inactive)	CN(C)S(=O)(=O)c1cccc(NC(=S)NCCc2cccc(O)c2)c1
> 100 µM (inactive)	CN(CCc1ccccn1)C(=S)Nc1cccc(S(=O)(=O)N(C)C)c1
62.8 µM	CC(CCc1ccccc1)NC(=S)Nc1cccc(S(=O)(=O)N(C)C)c1 (centres undefined)
22.9 µM	CN(C)S(=O)(=O)c1cccc(NC(=S)NCC(c2ccccc2)c2ccccc2)c1
> 100 µM (inactive)	CN(C)CC(C)(C)CNC(=S)Nc1cccc(S(=O)(=O)N(C)C)c1
> 100 µM (inactive)	Cc1ccc(CNC(=S)Nc2cccc(S(=O)(=O)N(C)C)c2)cc1
> 100 µM (inactive)	CN(C)S(=O)(=O)c1cccc(NC(=S)NCCC(=O)N2CCCC2)c1
91.5 µM	CN(C)S(=O)(=O)c1cccc(NC(=S)NC(C)(C)CC(C)(C)C)c1
57.9 µM	CN(C)S(=O)(=O)c1cccc(NC(=S)NCCc2cccc(Br)c2)c1
86.7 µM	CN(C)S(=O)(=O)c1cccc(NC(=S)NCCc2ccc(Br)cc2)c1
89.9 µM	COc1ccccc1CNC(=S)Nc1ccc(S(=O)(=O)N(C)C)cc1
> 100 µM (inactive)	COc1cccc(CNC(=S)Nc2ccc(S(=O)(=O)N(C)C)cc2)c1
> 100 µM (inactive)	CN(C)S(=O)(=O)c1ccc(NC(=S)NCCc2cccc(O)c2)cc1
> 100 µM (inactive)	CN(C)CCCNC(=S)Nc1cccc(S(=O)(=O)N(C)C)c1
90.3 µM	COc1cccc(CCNC(=S)Nc2cccc(S(=O)(=O)N(C)C)c2)c1
> 100 µM (inactive)	CN(C)S(=O)(=O)c1cccc(NC(=S)NCCCN2CCCC2=O)c1
> 100 µM (inactive)	CN(C)S(=O)(=O)c1cccc(NC(=S)NCCN2CCCC2)c1
> 100 µM (inactive)	CC1CC(NC(=S)Nc2cccc(S(=O)(=O)N(C)C)c2)CC(C)N1 (centres undefined)
> 100 µM (inactive)	CN(C)S(=O)(=O)c1cccc(NC(=S)NCCc2cccc(F)c2)c1
> 100 µM (inactive)	CN(C)S(=O)(=O)c1cccc(NC(=S)NCCc2ccc(F)cc2)c1
92.5 µM	CN(C)S(=O)(=O)c1cccc(NC(=S)NCc2ccc(Cl)cc2)c1

Second part, the compound before the results:

Compound	EC50
Cc1ccc(S(=O)(=O)N(C)C)cc1NC(=S)NC1CCN(Cc2ccccc2)CC1	> 100 µM (inactive)
Cc1ccc(CNC(=S)Nc2ccc(S(=O)(=O)N(C)C)cc2)cc1	86.1 µM
CN(C)S(=O)(=O)c1ccc(NC(=S)NCC(c2ccccc2)c2ccccc2)cc1	95.2 µM
CCN(CC)S(=O)(=O)c1ccc(NC(=S)NCC(c2ccccc2)c2ccccc2)cc1	45.8 µM
O=S(=O)(c1ccc(NC(=S)NC(c2ccccc2)c2ccccc2)cc1)N1CCCCC1	11 µM
O=S(=O)(c1ccc(NC(=S)NCCC(c2ccccc2)c2ccccc2)cc1)N1CCCC1	49.8 µM
COc1ccc(CCNC(=S)Nc2ccc(S(=O)(=O)N3CCCCC3)cc2)cc1OC	94.4 µM
O=C(NC(=S)Nc1cc(S(=O)(=O)N2CCOCC2)ccc1N1CCOCC1)c1ccco1	> 100 µM (inactive)
O=c1c2ccccc2[nH]c(=S)n1-c1cccc(S(=O)(=O)N2CCCC2)c1	> 100 µM (inactive)
Cc1ccc(S(=O)(=O)N(C)C)cc1NC(=S)NCCCn1ccnc1	> 100 µM (inactive)
CN(C)S(=O)(=O)c1ccc(NC(=S)NCc2ccc(Cl)cc2)cc1	> 100 µM (inactive)
O=C(CCc1ccccc1)NC(=S)Nc1cccc(S(=O)(=O)N2CCCC2)c1	> 100 µM (inactive)
COc1ccc(CCNC(=S)Nc2ccc(S(=O)(=O)N3CCCCC3)cc2)cc1	40.1 µM
CN(C)S(=O)(=O)c1ccc(NC(=S)NCCC(c2ccccc2)c2ccccc2)cc1	38.6 µM
CN(C)S(=O)(=O)c1ccc(NC(=S)NCCc2ccccc2)cc1	> 100 µM (inactive)
CC1CCN(S(=O)(=O)c2ccc(NC(=S)NC(c3ccccc3)c3ccccc3)cc2)CC1	> 100 µM (inactive)
CN(C)S(=O)(=O)c1ccc(NC(=S)NCCN2CCCC2)cc1	> 100 µM (inactive)
O=S(=O)(c1ccc(NC(=S)NCC(c2ccccc2)c2ccccc2)cc1)N1CCCC1	19.9 µM

Compound	EC50
Cc1ccc(S(=O)(=O)N(C)C)cc1NC(=S)NC(C)CCCC(C)C (centres undefined)	57.9 µM
CN(C)S(=O)(=O)c1cccc(NC(=S)NC(c2ccccc2)c2ccccc2)c1	20 µM
CCOc1cc(CCNC(=S)Nc2ccc(S(=O)(=O)N(C)C)cc2)ccc1OC	> 100 µM (inactive)
Cc1ccc(C)c(NC(=S)Nc2ccc(S(=O)(=O)N3CCCCC3)cc2)c1	> 100 µM (inactive)
COc1ccc(CNC(=S)Nc2ccc(S(=O)(=O)N3CCCCC3)cc2)cc1OC	75.3 µM
CC1CCN(S(=O)(=O)c2ccc(NC(=S)NCCC(c3ccccc3)c3ccccc3)cc2)CC1	18.9 µM
CN(C)S(=O)(=O)c1ccc(NC(=S)NC(c2ccccc2)c2ccccc2)cc1	18.4 µM
Cc1ccc(S(=O)(=O)N(C)C)cc1NC(=S)NC(=O)C12CC3CC(CC(C3)C1)C2	> 100 µM (inactive)
O=S(=O)(c1ccc(NC(=S)NCC(c2ccccc2)c2ccccc2)cc1)N1CCCCC1	25.5 µM
O=S(=O)(c1ccc(NC(=S)NCc2cccc(F)c2)cc1)N1CCCCC1	53.6 µM
O=C(NC(=S)Nc1cc(S(=O)(=O)N2CCOCC2)ccc1O)c1ccco1	> 100 µM (inactive)
O=S(=O)(c1ccc(NC(=S)NCCC(c2ccccc2)c2ccccc2)cc1)N1CCCCC1	47.2 µM
CN(C)S(=O)(=O)c1cccc(NC(=S)NCCC(c2ccccc2)c2ccccc2)c1	> 100 µM (inactive)
CCN(CC)S(=O)(=O)c1ccc(NC(=S)NCCC(c2ccccc2)c2ccccc2)cc1	29.7 µM
O=S(=O)(c1ccc(NC(=S)NC(c2ccccc2)c2ccccc2)cc1)N1CCCC1	26.1 µM
CCN(CC)c1ccc(C(=O)NC(=S)Nc2cc(S(=O)(=O)N3CCOCC3)ccc2-n2cncn2)cc1	> 100 µM (inactive)
CCN(CC)S(=O)(=O)c1ccc(NC(=S)NC(c2ccccc2)c2ccccc2)cc1	29 µM
Cc1ccccc1CNC(=S)Nc1ccc(S(=O)(=O)N(C)C)cc1	75.6 µM

From PubChem BioAssay AID588605 (Sanford-Burnham Center for Chemical Genomics, 2011)
